For one data set, the system named is SKMEL-188 melanoma cells. As to the kind of experiment: Sulforhodamine B assay in melanoma cells, SKMEL-188. In kind it is cell-based. The conditions noted are these: SK-MEL-188, 48 h, SRB assay, 48 h incubation; melanoma cell line. Here is the method:
(§1) SKMEL-188 cells were cultured in Ham's F10 medium (Gibco Invitrogen, Inc., Grand Island, N.Y.) plus 5% fetal bovine serum (Cellgro Mediatech, Inc., Herndon, Va.) and 1% antibiotic/antimycotic mixture (Sigma-Aldrich, Inc., St. Louis, Mo.). WM-164 cells (gift of Dr. Meenhard Herlyn, Wistar Inst., Philadelphia, Pa.) and human dermal fibroblasts (Cascade Biologics, Inc., Portland, Oreg.) were cultured in DMEM medium (Cellgro Mediatech, Inc.) supplemented with 5% fetal bovine serum, 1% antibiotic.antimycotic mixture and bovine insulin ([…], Sigma-Aldrich, Inc.). Human dermal fibroblasts were used as a control to examine the effects of compounds on stromal environment. Thus, the effect of the various compounds on melanoma cells versus fibroblasts would document their potential selectivity.
(§2) Sulforhodamine B Assay: Cells were seeded into 96-well plates at 5000 cells/well. After 12 hours, media were changed and serial dilutions of compounds were added. Cells were incubated with each compound for 48 hours. Fresh media containing the test compound were changed ever 24 hours. Thereafter, total cell protein corresponding to cell numbers (both viable and non-viable cells) were measured using the sulforhodamine B (SRB) assay according to manufacturer's protocol (Sigma-Aldrich, Inc.) (Rubinstein et al., “Comparison of in vitro Anticancer Drug-screening Data Generated with a Tetrazolium Assay Versus a Protein Assay Against a Diverse Panel of Human Tumor Cell Lines,” J. Natl. Cancer Inst. 82:1113-1118 (1990); Dothager et al., “Synthesis and Identification of Small Molecules that Potently Induce Apoptosis in Melanoma Cells Through GI Cell Cycle Arrest,” J. Am. Chem. Soc. 127:8686-8696 (2005), each of which is hereby incorporated by reference in its entirety). Briefly, cells were fixed with trichloracetic acid, washed and incubated with sulforhodamine B for 30 minutes. After another wash, dye incorporated into the cells was solubilized and measured using a plate reader at 565 nm.
(§3) Statistical Analysis: Data is presented as mean±SEM (n=6-8). […] Statistical analyses were performed with Student's t-test (*p<0.05; **p<0.005).
(§4) DTIC and Taxol were assayed in the same way for comparison and served as internal quality controls in the different batches of assay. For comparison, the activities of 5R and 5S were measured.

A further data set relates to WM-164 cells. As to the kind of experiment: Sulforhodamine B assay in melanoma cells, WM-164. Format: cell-based. To be noted: Homo sapiens, WM164, read-out: IC50 WM-164; SRB assay, 48 h incubation; melanoma cell line. As to the method: as §1, §2, §3, §4
In general terms: The SRB assay estimates cell density from bound dye.

The subject of the next data set is human dermal fibroblasts. As to the kind of experiment: Sulforhodamine B assay, fibroblast control cells. Format: cell-based. To be noted: Homo sapiens, Fibroblast, 48 h, SRB assay, 48 h incubation. Here is the method:
as §1, §2, §3, §4

For another data set, the system named is LNCaP cells. As to the kind of experiment: DNA fragmentation by agarose gel electrophoresis. The conditions noted are these: treatment for 24 to […], 3-50 μM, FIGS. 4A-B. In kind it is cell-based, human. As to the method:
In FIG. 4B, the dose and exposure time are indicated for compound 5 as follows: lane 1, 100 bp DNA marker; lane 2, 5 μM for 24 h; lane 3, 5 μM for 48 h; lane 4, 5 μM for 72 h; lane 5, 5 μM for 96 h; lane 6, 3 μM for 96 h; lane 7, 8 μM for 48 h; and lane 8, 8 μM for 72 h.

Data set [1] deals with RH7777 rat hepatoma cells. Description: SRB cytotoxicity assay, RH7777 control cell line. In kind it is cell-based. To be noted: Rattus norvegicus, RH7777; SRB assay, 96 h exposure; control cell line.
Data set [2] deals with DU-145 human prostate cancer cells. Description: SRB cytotoxicity assay, DU-145. In kind it is cell-based. To be noted: Homo sapiens, DU-145, read-out: IC50 DU-145, 96 h exposure, prostate cancer cell line.
Data set [3] deals with LNCaP human prostate cancer cells. As to the kind of experiment: SRB cytotoxicity assay, LNCaP. Format: cell-based. To be noted: Homo sapiens, LNCaP, 96 h exposure, prostate cancer cell line.
Data set [4] deals with PPC-1 human prostate cancer cells. Description: SRB cytotoxicity assay, PPC-1. Format: cell-based. To be noted: Homo sapiens, PPC-1, 96 h exposure, prostate cancer cell line.
Data set [5] deals with TSU-Pr1 human prostate cancer cells. Description: SRB cytotoxicity assay, TSU-Pr1. In kind it is cell-based. To be noted: Homo sapiens, TSU-Pr1, 96 h exposure, prostate cancer cell line.
Data set [6] has as its system CaOv-3 human ovarian cancer cell line. As to the kind of experiment: SRB cytotoxicity assay, CaOv-3. Format: cell-based. Here is the method:
(§5) For in vitro cytotoxicity screening, 1000 to 5000 cells were plated into each well of 96-well plates depending on growth rate, and exposed to different concentrations of a test compound for 96 h in three to five replicates. All the compounds were dissolved in dimethyl sulfoxide at 5 to 20 mM, and diluted to desired concentrations in complete culture medium. Cell numbers at the end of the drug treatment were measured by the SRB assay (Gududuru et al., “Synthesis and Biological Evaluation of Novel Cytotoxic Phospholipids for Prostate Cancer,” Bioorg. Med. Chem. Lett. 14:4919-4923 (2004); Rubinstein et al., “Comparison of in vitro Anticancer-Drug-Screening Data Generated with a Tetrazolium Assay Versus a Protein Assay Against a Diverse Panel of Human Tumor Cell Lines,” J. Natl. Cancer Inst. 82:1113-1118 (1990), each of which is hereby incorporated by reference in its entirety). Briefly, the cells were fixed with 10% of trichloroacetic acid, stained with 0.4% SRB, and the absorbances at 540 nm was measured using a plate reader (DYNEX Technologies, Chantilly, Va.). […] A sandwich ELISA (Roche, Mannheim, Germany) utilizing monoclonal antibodies specific for DNA and histones was used to quantify degree of apoptosis induced by the analogs after 72 h exposure. This assay measures DNA-histone complexes (mono- and oligonucleosomes) released into cytoplasm from the nucleus during apoptosis. RH7777 cells were employed because of nonspecific cytotoxicity of compound 4 in receptor-negative cells as well as receptor-positive prostate cancer cells.
(§6) In vitro cytotoxicity assay was performed by the same sulforhodamine B (SRB) assay (described above). The compounds shown in Table 8 below where tested for activity against the breast cancer and ovarian cancer cell lines.

Data set [7] relates to OVCAR-3 human ovarian cancer cell line. As to the kind of experiment: SRB cytotoxicity assay, OVCAR-3. In kind it is cell-based. Here is the method:
as §5, §6

Data set [8] relates to SKOv-3 human ovarian cancer cell line. As to the kind of experiment: SRB cytotoxicity assay, SKOv-3. Format: cell-based. The conditions noted are these: SK-OV-3. As to the method: as §5, §6

As for `CCCCCCCCCCCCCCCCCCNC(=O)[C@@H]1CSC(c2ccccc2)N1.Cl` (mixture of isomers) [Compound 5, (2RS, 4R)-2-Phenylthiazolidine-4-carboxylic acid octadecylamide Hydrochloride], the IC50 (as a rule, the concentration that inhibits the measured activity by half) was 39.6 µM in the data set with SKMEL-188 melanoma cells, over 50 µM in the data set with WM-164 cells and over 50 µM with human dermal fibroblasts. In the data set on LNCaP cells, the “DNA fragmentation (apoptosis) in LNCaP cells” value is given as “induce cell apoptosis”.

As for `CCCCCCCCCCCCCCCCCCNC(=O)[C@@H]1CSC(c2ccc(OC)c(OC)c2)N1.Cl` (mixture of isomers) [Compound 16, (2RS, 4R)-2-(3,4-Dimethoxy-phenyl)-thiazolidine-4-carboxylic acid octadecylamide Hydrochloride], the melting point – broadly, the temperature, or range, at which the solid turns liquid – worked out at 103 °C. In data set [1], this compound yielded an IC50 of 10.3 µM. Also, the IC50 in data set [2] worked out at 4.5 µM. In addition, in data set [3], the IC50 was determined as 0.85 µM. This compound also had an IC50 in [4] of 0.58 µM. The compound also had an IC50 in data set [5] of 2.4 µM. Moreover, the IC50 in [6] worked out at 5.5 µM. Besides, in data set [7], 1.2 µM corresponded to half-maximal inhibition (IC50). Further, the IC50 in data set [8] turned out to be 3.6 µM. Moreover, in the data set on SKMEL-188 melanoma cells, the IC50 stood at 2.4 µM. Also, the IC50 in the data set with WM-164 cells stood at 3.1 µM. For the same compound, the IC50 with human dermal fibroblasts was over 10 µM.

For the origin of these results see patent US7662842B2, “Thiazolidinone amides, thiazolidine carboxylic acid amides, and serine amides, including polyamine conjugates thereof, as selective anti-cancer agents” (Ohio State Univesity Research Foundation, priority 2003, dated 2010).
